# Data: ChEMBL document CHEMBL4602695, “Discovery and SARs of 5-Chloro-N4-phenyl-N2-(pyridin-2-yl)pyrimidine-2,4-diamine Derivatives as Oral Available and Dual CDK 6 and 9 Inhibitors with Potent Antitumor Activity” (J Med Chem, 2020)
# Experiments:
# [1] = Thermodynamic equilibrium solubility in water by HPLC-based shake flask method; type: physicochemical; settings: read-out: Therm_solubility
# MDA-MB-231 [2] = assay: Cell cycle arrest in human MDA-MB-231 cells assessed as accumulation at S phase at 4 uM measured after 48 hrs by propidium iodide staining based flow cytometry (reference value: 26.45%); type: functional
# MDA-MB-231 [3] = assay: Cell cycle arrest in human MDA-MB-231 cells assessed as accumulation at G0/G1 phase at 4 uM measured after 48 hrs by propidium iodide staining based flow cytometry (reference value: 57.65%); type: functional
# [4] = Half life in Sprague-Dawley rat at 10 mg/kg, po by LC-MS/MS analysis; type: ADME, organism-based; settings: in vivo
# [5] = Tmax in Sprague-Dawley rat at 10 mg/kg, po by LC-MS/MS analysis; type: ADME, organism-based; settings: in vivo
# MDA-MB-231 [6] = assay: Cell cycle arrest in human MDA-MB-231 cells assessed as accumulation at S phase at 12 uM measured after 48 hrs by propidium iodide staining based flow cytometry (reference value: 26.45%); type: functional
# [7] = Stability in human hepatocytes assessed as parent compound remaining after 120 mins by LC-MS/MS analysis; type: ADME, cell-based, Hepatocyte; settings: read-out: Stability
# [8] = AUC (0 to infinity) in Sprague-Dawley rat at 2 mg/kg, iv by LC-MS/MS analysis; type: ADME, organism-based; design: dose 2 mg/kg, route intravenous, time infinity; settings: in vivo
# CDK6/cyclin D3 [9] = target: T1, CDK6/cyclin D3 (Homo sapiens, UniProt Q00534); design: species or system Sf9
# MDA-MB-231 [10] = assay: Induction of apoptosis in human MDA-MB-231 cells assessed as viable cells at 8 uM measured after 48 hrs by Annexin V-FITC/propidium iodide staining based flow cytometry (95.8%); type: functional; settings: MDA-MB-231, 48 h, read-out: Activity
# MDA-MB-231 [11] = assay: Induction of apoptosis in human MDA-MB-231 cells assessed as early apoptotic cells at 12 uM measured after 48 hrs by Annexin V-FITC/propidium iodide staining based flow cytometry (0.877%); type: functional
# MDA-MB-231 [12] = assay: Induction of apoptosis in human MDA-MB-231 cells assessed as necrotic cells at 4 uM measured after 48 hrs by Annexin V-FITC/propidium iodide staining based flow cytometry (0.498%); type: functional
# MDA-MB-231 [13] = assay: Induction of apoptosis in human MDA-MB-231 cells assessed as early apoptotic cells at 8 uM measured after 48 hrs by Annexin V-FITC/propidium iodide staining based flow cytometry (0.877%); type: functional
# [14] = Cytotoxicity against human L02 cells assessed as inhibition of cell proliferation measured after 48 hrs by CCK8 assay; type: cell-based
# MCF7 = assay: Antiproliferative activity against human MCF7 cells assessed as inhibition of cell proliferation measured after 48 hrs by CCK8 assay; type: functional, cell-based; settings: MCF7, 48 h
# CDK2/Cyclin A2 = CDK2/Cyclin A2 (Homo sapiens, UniProt P24941); design: species or system Sf9
# [15] = Thermodynamic equilibrium solubility in normal saline by HPLC-based shake flask method; type: physicochemical; settings: read-out: Therm_solubility
# CDK9/Cyclin K = CDK9/Cyclin K (Homo sapiens, UniProt P50750); assay: biochemical
# MDA-MB-231 [16] = assay: Cell cycle arrest in human MDA-MB-231 cells assessed as accumulation at G0/G1 phase at 12 uM measured after 48 hrs by propidium iodide staining based flow cytometry (reference value: 57.65%); type: functional
# MDA-MB-231 [17] = assay: Induction of apoptosis in human MDA-MB-231 cells assessed as necrotic cells at 12 uM measured after 48 hrs by Annexin V-FITC/propidium iodide staining based flow cytometry (0.498%); type: functional
# MDA-MB-231 [18] = assay: Induction of apoptosis in human MDA-MB-231 cells assessed as viable cells at 12 uM measured after 48 hrs by Annexin V-FITC/propidium iodide staining based flow cytometry (95.8%); type: functional; settings: MDA-MB-231, 48 h, read-out: Activity
# [19] = Oral bioavailability in Sprague-Dawley rat at 10 mg/kg by LC-MS/MS analysis; type: ADME, organism-based; settings: in vivo
# [20] = Cmax in Sprague-Dawley rat at 10 mg/kg, po by LC-MS/MS analysis; type: ADME, organism-based; design: dose 10 mg/kg, route oral; settings: in vivo
# [21] = Clearance in Sprague-Dawley rat at 10 mg/kg, po by LC-MS/MS analysis; type: ADME, organism-based; settings: in vivo
# MDA-MB-231 [22] = assay: Cell cycle arrest in human MDA-MB-231 cells assessed as accumulation at G2/M phase at 12 uM measured after 48 hrs by propidium iodide staining based flow cytometry (reference value: 15.9%); type: functional
# MDA-MB-231 [23] = assay: Cell cycle arrest in human MDA-MB-231 cells assessed as accumulation at G2/M phase at 8 uM measured after 48 hrs by propidium iodide staining based flow cytometry (reference value: 15.9%); type: functional
# [24] = Clearance in human hepatocytes assessed per million cells by LC-MS/MS analysis; type: ADME, cell-based, Hepatocyte; settings: read-out: CLH
# [25] = Half life in human hepatocytes by LC-MS/MS analysis; type: ADME, cell-based, Hepatocyte
# [26] = Toxicity in ICR mouse assessed as weight loss at 500 mg/kg, po administered as single dose measured for 7 days; type: organism-based; settings: in vivo, 168 h
# CDK6/cyclin D3 [27] = target: T1, CDK6/cyclin D3; assay: Binding affinity to recombinant full-length GFP-fused CDK6/His-tagged cyclin D3 (unknown origin) expressed in HEK293T cells measured after 30 mins by microscale thermophoresis method; design: species or system HEK-293T
# MDA-MB-231 [28] = assay: Induction of apoptosis in human MDA-MB-231 cells assessed as viable cells at 4 uM measured after 48 hrs by Annexin V-FITC/propidium iodide staining based flow cytometry (95.8%); type: functional; settings: MDA-MB-231, 48 h, read-out: Activity
# [29] = Stability in mouse hepatocytes assessed as parent compound remaining after 120 mins by LC-MS/MS analysis; type: ADME, cell-based, Hepatocyte; settings: read-out: Stability
# MDA-MB-231 [30] = assay: Cell cycle arrest in human MDA-MB-231 cells assessed as accumulation at G2/M phase at 4 uM measured after 48 hrs by propidium iodide staining based flow cytometry (reference value: 15.9%); type: functional
# [31] = Cmax in Sprague-Dawley rat at 2 mg/kg, iv by LC-MS/MS analysis; type: ADME, organism-based; design: dose 2 mg/kg, route intravenous; settings: in vivo
# MDA-MB-231 [32] = assay: Cell cycle arrest in human MDA-MB-231 cells assessed as accumulation at S phase at 8 uM measured after 48 hrs by propidium iodide staining based flow cytometry (reference value: 26.45%); type: functional
# MDA-MB-231 [33] = assay: Induction of apoptosis in human MDA-MB-231 cells assessed as late apoptotic cells at 12 uM measured after 48 hrs by Annexin V-FITC/propidium iodide staining based flow cytometry (2.78%); type: functional
# MDA-MB-231 [34] = assay: Antiproliferative activity against human MDA-MB-231 cells assessed as inhibition of cell proliferation measured after 48 hrs by CCK8 assay; type: functional, cell-based; settings: MDA-MB-231, 48 h
# MDA-MB-231 [35] = assay: Induction of apoptosis in human MDA-MB-231 cells assessed as late apoptotic cells at 8 uM measured after 48 hrs by Annexin V-FITC/propidium iodide staining based flow cytometry (2.78%); type: functional
# [36] = target: Cyclin-dependent kinase 5/CDK5 activator 1 (Homo sapiens, UniProt Q00535); settings: Sf9, human, read-out: INH
# [37] = Clearance in mouse hepatocytes assessed per million cells by LC-MS/MS analysis; type: ADME, cell-based, Hepatocyte; settings: read-out: CLH
# [38] = Apparent permeability in human Caco2 cells measured after 90 mins by LC-MS/MS analysis; type: ADME, cell-based; settings: Caco-2
# T1 sequence (P30281 whole entry): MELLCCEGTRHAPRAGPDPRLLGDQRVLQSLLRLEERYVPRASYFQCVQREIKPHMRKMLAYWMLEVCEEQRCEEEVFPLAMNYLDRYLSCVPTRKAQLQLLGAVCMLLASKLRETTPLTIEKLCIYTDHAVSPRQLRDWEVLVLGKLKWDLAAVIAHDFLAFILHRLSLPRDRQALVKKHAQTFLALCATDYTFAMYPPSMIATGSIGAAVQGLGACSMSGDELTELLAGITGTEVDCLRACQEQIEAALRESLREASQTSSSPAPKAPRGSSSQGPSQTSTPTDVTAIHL
# T1 sequence (Q00534 whole entry): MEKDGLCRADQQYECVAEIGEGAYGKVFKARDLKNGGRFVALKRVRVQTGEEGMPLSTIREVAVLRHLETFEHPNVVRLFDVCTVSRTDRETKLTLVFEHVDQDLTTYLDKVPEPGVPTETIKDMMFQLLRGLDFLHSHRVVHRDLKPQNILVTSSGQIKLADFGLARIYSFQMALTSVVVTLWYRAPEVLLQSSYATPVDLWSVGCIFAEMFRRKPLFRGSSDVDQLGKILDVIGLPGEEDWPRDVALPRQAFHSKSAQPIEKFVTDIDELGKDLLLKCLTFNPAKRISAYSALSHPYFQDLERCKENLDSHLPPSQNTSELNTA
# Cyclin-dependent kinase 5/CDK5 activator 1, sequence (Q00535 whole entry): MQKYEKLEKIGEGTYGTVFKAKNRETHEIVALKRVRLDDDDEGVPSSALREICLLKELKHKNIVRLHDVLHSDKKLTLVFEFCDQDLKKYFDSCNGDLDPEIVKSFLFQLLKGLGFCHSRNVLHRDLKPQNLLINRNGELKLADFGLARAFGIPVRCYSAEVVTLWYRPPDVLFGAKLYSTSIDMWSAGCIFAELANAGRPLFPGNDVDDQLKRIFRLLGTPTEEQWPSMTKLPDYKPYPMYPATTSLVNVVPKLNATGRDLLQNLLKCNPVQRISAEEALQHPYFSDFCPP
# Cyclin-dependent kinase 5/CDK5 activator 1, sequence (Q15078 whole entry, further chain): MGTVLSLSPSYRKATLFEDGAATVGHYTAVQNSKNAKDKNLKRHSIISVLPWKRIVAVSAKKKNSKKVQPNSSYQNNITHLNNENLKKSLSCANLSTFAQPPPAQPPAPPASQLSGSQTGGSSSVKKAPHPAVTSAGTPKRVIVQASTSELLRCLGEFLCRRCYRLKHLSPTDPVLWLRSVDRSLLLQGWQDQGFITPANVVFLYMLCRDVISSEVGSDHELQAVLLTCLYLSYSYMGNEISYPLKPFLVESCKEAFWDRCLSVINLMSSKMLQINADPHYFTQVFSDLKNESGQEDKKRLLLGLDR
# CDK9/Cyclin K, sequence (P50750 whole entry): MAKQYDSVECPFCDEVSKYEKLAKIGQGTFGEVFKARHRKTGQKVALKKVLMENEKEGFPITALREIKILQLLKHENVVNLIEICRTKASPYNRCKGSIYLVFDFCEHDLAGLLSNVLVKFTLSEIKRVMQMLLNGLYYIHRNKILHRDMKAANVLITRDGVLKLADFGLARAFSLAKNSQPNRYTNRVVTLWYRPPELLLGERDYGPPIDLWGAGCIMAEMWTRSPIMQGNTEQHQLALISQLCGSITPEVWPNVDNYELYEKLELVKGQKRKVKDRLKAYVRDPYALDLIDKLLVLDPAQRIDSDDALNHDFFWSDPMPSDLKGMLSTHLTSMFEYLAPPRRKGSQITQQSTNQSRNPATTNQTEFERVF
# CDK9/Cyclin K, sequence (O75909 whole entry, further chain): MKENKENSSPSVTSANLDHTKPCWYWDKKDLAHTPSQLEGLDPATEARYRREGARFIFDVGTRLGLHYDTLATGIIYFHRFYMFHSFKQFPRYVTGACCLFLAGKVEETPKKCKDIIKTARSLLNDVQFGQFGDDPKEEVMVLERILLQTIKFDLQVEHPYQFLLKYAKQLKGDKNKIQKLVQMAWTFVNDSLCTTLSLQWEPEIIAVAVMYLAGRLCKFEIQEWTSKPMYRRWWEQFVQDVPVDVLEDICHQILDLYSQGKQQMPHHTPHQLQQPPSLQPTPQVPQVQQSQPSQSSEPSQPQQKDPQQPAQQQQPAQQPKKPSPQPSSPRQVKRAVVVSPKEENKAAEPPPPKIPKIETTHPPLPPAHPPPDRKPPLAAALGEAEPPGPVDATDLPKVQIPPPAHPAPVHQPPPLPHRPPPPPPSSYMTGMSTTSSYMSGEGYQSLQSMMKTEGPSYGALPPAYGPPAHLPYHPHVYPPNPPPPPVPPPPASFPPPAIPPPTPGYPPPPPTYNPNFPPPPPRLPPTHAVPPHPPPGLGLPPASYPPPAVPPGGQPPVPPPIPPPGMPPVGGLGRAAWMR
smiles,measurement,setting,value
CC(=O)Nc1cccc(Nc2nc(Nc3ccc(N4CCN(C)CC4)cn3)ncc2Cl)c1,solubility thermodynamic,[1],340 µg/mL
same,Activity,MDA-MB-231 [2],18.97%
same,Activity,MDA-MB-231 [3],71.85%
same,half-life,[4],3.24 h
same,Tmax,[5],4 h
same,Activity,MDA-MB-231 [6],15.23%
same,remaining at 2 h,[7],40.4%
same,AUC(0-inf),[8],641 ng·h/mL
same,IC50,CDK6/cyclin D3 [9],40.5 nM
same,viability at 8 µM,MDA-MB-231 [10],87.5%
same,Activity,MDA-MB-231 [11],16.4%
same,Activity,MDA-MB-231 [12],0.57%
same,Activity,MDA-MB-231 [13],5.06%
same,GI50 at 48 h,[14],> 100000 nM
same,IC50,MCF7,4010 to 8080 nM
same,IC50,CDK2/Cyclin A2,> 10000 nM
same,solubility thermodynamic,[15],214 µg/mL
same,IC50,CDK9/Cyclin K,39.5 nM
same,Activity,MDA-MB-231 [16],50.5%
same,Activity,MDA-MB-231 [17],2.24%
same,viability at 12 µM,MDA-MB-231 [18],54.9%
same,bioavailability,[19],28.9%
same,Cmax,[20],101 ng/mL
same,CL/F,[21],180 mL/min/kg
same,Activity,MDA-MB-231 [22],34.27%
same,Activity,MDA-MB-231 [23],8.13%
same,hepatocyte CLint,[24],7.5 µL/min/1e6 cells
same,half-life,[25],1.53 h
same,Activity,[26],Non-Toxic
same,Kd,CDK6/cyclin D3 [27],71 nM
same,viability at 4 µM,MDA-MB-231 [28],94.2%
same,remaining at 2 h,[29],12%
same,Activity,MDA-MB-231 [30],9.18%
same,Cmax,[31],995 ng/mL
same,Activity,MDA-MB-231 [32],14.36%
same,Activity,MDA-MB-231 [33],26.4%
same,IC50,MDA-MB-231 [34],4010 to 8080 nM
same,Activity,MDA-MB-231 [35],6.72%
same,inhibition at 1 µM,[36],< 6.6%
same,hepatocyte CLint,[37],17.7 µL/min/1e6 cells
same,Papp at 1.5 h,[38],1.7 ×10⁻⁶ cm/s
